Experimental data as given in US11168086B2, “Methods of synthesizing pyrazine compounds” (Hoffmann-La Roche Inc., priority 2015, dated 2021).

Test system: HBV
Assay: HBV inhibition assay: anti-HBV activity in vitro in HepG2.2.15 cells (extracellular HBV DNA by qPCR)
Type: cell-based
Conditions: Hepatitis B virus, 120 h, five days after compound treatment, extracellular HBV DNA in culture supernatant by qPCR, concentration at which HBV replication is inhibited by 50%
Outline: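 HepG2.2.15 cells (stably carrying HBV genome) treated with half-log serially diluted compounds at 0.5% DMSO final for five days. Extracellular HBV DNA in supernatant quantified by qPCR after Proteinase K digestion; EC50 is concentration giving 50% inhibition of replication.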

In order of rising EC50:
1. C[C@H]1Cn2ncc(N3CC4(CC4)CC3=O)c2CN1C(=O)Nc1cc(F)c(F)c(F)c1 [Example 252, (6S)-6-methyl-3-(6-oxo-5-azaspiro[2.4]heptan-5-yl)-N-(3,4,5-trifluorophenyl)-6,7-dihydro-4H-pyrazolo[1,5-a]pyrazine-5-carboxamide]  15 nM
2. C[C@H]1Cn2ncc(N3CC(C)(C)CC3=O)c2CN1C(=O)Nc1ccc(F)c(Cl)c1 [Example 257, (6S)—N-(3-chloro-4-fluoro-phenyl)-3-(4,4-dimethyl-2-oxo-pyrrolidin-1-yl)-6-methyl-6,7-dihydro-4H-pyrazolo[1,5-a]pyrazine-5-carboxamide]  15 nM
3. C[C@H]1Cn2ncc(N3CC(C)(C)OC3=O)c2CN1C(=O)Nc1cc(F)c(F)c(F)c1 [Example 250, (6S)-3-(5,5-dimethyl-2-oxo-oxazolidin-3-yl)-6-methyl-N-(3,4,5-trifluorophenyl)-6,7-dihydro-4H-pyrazolo[1,5-a]pyrazine-5-carboxamide]  21 nM
4. C[C@H]1Cn2ncc(N3CC(C(F)(F)F)CC3=O)c2CN1C(=O)Nc1cc(F)c(F)c(F)c1 (stereo partly drawn) [Example 259, (6S)-6-methyl-3-[2-oxo-4-(trifluoromethyl)pyrrolidin-1-yl]-N-(3,4,5-trifluorophenyl)-6,7-dihydro-4H-pyrazolo[1,5-a]pyrazine-5-carboxamide]  23 nM
5. C[C@H]1Cn2ncc(N3CC(C(F)(F)F)CC3=O)c2CN1C(=O)Nc1ccc(F)c(Cl)c1 (stereo partly drawn) [Example 255, (6S)—N-(3-chloro-4-fluoro-phenyl)-6-methyl-3-[2-oxo-4-(trifluoromethyl)pyrrolidin-1-yl]-6,7-dihydro-4H-pyrazolo[1,5-a]pyrazine-5-carboxamide]  28 nM
6. CC1CC(=O)N(c2cnn3c2CN(C(=O)Nc2ccc(F)c(Cl)c2)[C@@H](C)C3)C1 (stereo partly drawn) [Example 254, (6S)—N-(3-chloro-4-fluoro-phenyl)-6-methyl-3-(4-methyl-2-oxo-pyrrolidin-1-yl)-6,7-dihydro-4H-pyrazolo[1,5-a]pyrazine-5-carboxamide]  39 nM
7. C[C@H]1Cn2ncc(N3CC(COc4ncccn4)CC3=O)c2CN1C(=O)Nc1cc(F)c(F)c(F)c1 (stereo partly drawn) [Example 267, (6S)-6-methyl-3-[2-oxo-4-(pyrimidin-2-yloxymethyl)pyrrolidin-1-yl]-N-(3,4,5-trifluorophenyl)-6,7-dihydro-4H-pyrazolo[1,5-a]pyrazine-5-carboxamide]  39 nM
8. C[C@@H]1[C@H](C)N(C(=O)Nc2cc(F)c(F)c(F)c2)Cc2c(N3CCCC3=O)cnn21 [Example 261, (6S,7R)-6,7-dimethyl-3-(2-oxopyrrolidin-1-yl)-N-(3,4,5-trifluorophenyl)-6,7-dihydro-4H-pyrazolo[1,5-a]pyrazine-5-carboxamide]  40 nM
9. C[C@H]1Cn2ncc(N3CC4CC4C3=O)c2CN1C(=O)Nc1cc(F)c(F)c(F)c1 (stereo partly drawn) [Example 253, (6S)-6-methyl-3-(2-oxo-3-azabicyclo[3.1.0]hexan-3-yl)-N-(3,4,5-trifluorophenyl)-6,7-dihydro-4H-pyrazolo[1,5-a]pyrazine-5-carboxamide]  44 nM
10. C[C@H]1[C@H](C)n2ncc(N3CCCC3=O)c2CN1C(=O)Nc1cc(F)c(F)c(F)c1 [Example 251, (6S,7S)-6,7-dimethyl-3-(2-oxopyrrolidin-1-yl)-N-(3,4,5-trifluorophenyl)-6,7-dihydro-4H-pyrazolo[1,5-a]pyrazine-5-carboxamide]  45 nM
11. C[C@H]1Cn2ncc(N3CC[C@H](O)C3=O)c2CN1C(=O)Nc1cc(F)c(F)c(F)c1 [Example 262, (6S)-3-[(3S)-3-hydroxy-2-oxo-pyrrolidin-1-yl]-6-methyl-N-(3,4,5-trifluorophenyl)-6,7-dihydro-4H-pyrazolo[1,5-a]pyrazine-5-carboxamide]  65 nM
12. C[C@H]1Cn2ncc(N3CCC(O)C3=O)c2CN1C(=O)Nc1ccc(F)c(Cl)c1 (stereo partly drawn) [Example 256, (6S)—N-(3-chloro-4-fluoro-phenyl)-3-(3-hydroxy-2-oxo-pyrrolidin-1-yl)-6-methyl-6,7-dihydro-4H-pyrazolo[1,5-a]pyrazine-5-carboxamide]  68 nM
